Data from ChEMBL document CHEMBL1135196, “4-Aminoarylguanidine and 4-aminobenzamidine derivatives as potent and selective urokinase-type plasminogen activator inhibitors” (Bioorg Med Chem Lett, 2002).
pKi: −log10 of the molar value.

Assays:
[1] = target: Urokinase-type plasminogen activator (Homo sapiens, UniProt P00749)
Description: Inhibition of urokinase-type plasminogen activator (microPa)

Plasminogen = Plasminogen (Homo sapiens, UniProt P00747); test: Inhibition of plasmin
[2] = target: T1, Tissue-type plasminogen activator (Homo sapiens, UniProt P00750); test: Activation of plasminogen
T1 sequence (P00750 whole entry): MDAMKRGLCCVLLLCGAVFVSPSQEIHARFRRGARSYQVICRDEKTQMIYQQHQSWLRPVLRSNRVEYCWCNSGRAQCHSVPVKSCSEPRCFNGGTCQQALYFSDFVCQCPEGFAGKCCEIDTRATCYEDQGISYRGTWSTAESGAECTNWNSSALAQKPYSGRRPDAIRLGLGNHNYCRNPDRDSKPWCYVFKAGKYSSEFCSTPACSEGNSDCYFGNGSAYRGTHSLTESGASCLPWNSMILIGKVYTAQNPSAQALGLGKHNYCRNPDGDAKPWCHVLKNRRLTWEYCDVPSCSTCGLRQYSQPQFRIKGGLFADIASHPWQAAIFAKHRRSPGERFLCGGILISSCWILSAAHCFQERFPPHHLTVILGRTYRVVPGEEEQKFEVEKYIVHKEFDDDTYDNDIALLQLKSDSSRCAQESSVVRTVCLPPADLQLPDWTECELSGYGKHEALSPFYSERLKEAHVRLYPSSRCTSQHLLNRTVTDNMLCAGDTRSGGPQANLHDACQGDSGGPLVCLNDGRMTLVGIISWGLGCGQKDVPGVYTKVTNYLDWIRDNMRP

Prothrombin = Prothrombin (Homo sapiens, UniProt P00734); test: Inhibition of thrombin
Coagulation factor X [3] = target: T2, Coagulation factor X (Homo sapiens, UniProt P00742); test: The compound was evaluated to inhibit the Coagulation factor X
T2 sequence (P00742 41-179 limits assumed): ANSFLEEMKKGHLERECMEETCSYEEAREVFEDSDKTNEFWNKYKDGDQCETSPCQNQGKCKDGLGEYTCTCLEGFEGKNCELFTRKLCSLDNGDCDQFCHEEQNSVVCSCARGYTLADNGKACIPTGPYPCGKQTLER
T2 sequence (P00742 235-488 limits assumed): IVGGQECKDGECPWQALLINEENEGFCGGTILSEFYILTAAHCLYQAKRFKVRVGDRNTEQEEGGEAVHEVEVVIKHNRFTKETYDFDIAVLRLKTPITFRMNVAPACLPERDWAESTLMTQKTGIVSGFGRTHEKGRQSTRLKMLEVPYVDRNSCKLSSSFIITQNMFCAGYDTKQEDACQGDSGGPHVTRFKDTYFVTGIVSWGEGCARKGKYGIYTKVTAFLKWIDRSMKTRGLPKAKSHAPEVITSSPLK

Coagulation factor X [4] = target: T2, Coagulation factor X; test: Inhibition of coagulation factor X
[5] = target: T1, Tissue-type plasminogen activator; test: Activation of tissue plasminogen

Chain of Plasminogen (P00747 97-580 limits assumed): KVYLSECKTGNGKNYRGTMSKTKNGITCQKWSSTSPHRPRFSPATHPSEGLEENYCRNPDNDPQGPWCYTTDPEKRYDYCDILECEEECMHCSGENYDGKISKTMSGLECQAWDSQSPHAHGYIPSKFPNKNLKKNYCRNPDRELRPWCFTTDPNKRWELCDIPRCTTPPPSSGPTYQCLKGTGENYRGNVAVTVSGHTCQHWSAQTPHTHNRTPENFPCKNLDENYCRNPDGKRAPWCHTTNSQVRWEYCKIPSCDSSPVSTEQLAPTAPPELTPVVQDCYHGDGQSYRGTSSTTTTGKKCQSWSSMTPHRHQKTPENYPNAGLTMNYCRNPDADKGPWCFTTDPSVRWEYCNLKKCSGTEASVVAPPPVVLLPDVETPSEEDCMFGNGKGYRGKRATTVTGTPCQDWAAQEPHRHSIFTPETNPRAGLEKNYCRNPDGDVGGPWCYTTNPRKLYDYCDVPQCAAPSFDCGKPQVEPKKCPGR
Chain of Plasminogen (P00747 581-810 limits assumed): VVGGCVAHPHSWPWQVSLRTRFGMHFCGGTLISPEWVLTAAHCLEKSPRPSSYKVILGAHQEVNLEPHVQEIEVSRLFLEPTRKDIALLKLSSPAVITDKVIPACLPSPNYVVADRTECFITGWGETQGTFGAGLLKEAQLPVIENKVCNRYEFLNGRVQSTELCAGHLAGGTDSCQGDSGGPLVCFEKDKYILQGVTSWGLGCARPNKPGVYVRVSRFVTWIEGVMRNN

Row | pKi (Plasminogen) | pKi (Coagulation factor X [4]) | pKi [5] | SMILES | pKi [1] | pKi [2] | pKi (Prothrombin) | pKi (Coagulation factor X [3])
1 |  | < 3.33 | < 4.02 | NC(N)=Nc1ccc(NC(=O)c2cccc(-c3ccccc3)c2O)cc1 |  |  | < 3.35 | 
2 |  | < 3.33 | < 4.02 | NC(N)=Nc1ccc(NC(=O)c2ccc(Cl)cc2O)cc1 |  |  | < 3.35 | 
3 | < 4.12 | 3.98 |  | NC(N)=Nc1ccc(NC(=O)c2ccccc2O)cc1 |  | < 4.02 | < 3.35 | 
4 |  | 3.62 | < 3.25 | CC(C)Oc1c(O)c(C(=O)Nc2ccc(NC(=N)N)cc2)cc2ccccc12 |  |  | < 3.35 | 
5 |  |  |  | CCOc1ccc(C(=O)Nc2ccc(C(=N)N)cc2)c(O)c1 | 6.19 | 5.70 | 4.47 | 4.43
6 |  | 3.46 | < 4.02 | Cc1cccc(C(=O)Nc2ccc(NC(=N)N)cc2)c1O |  |  | < 3.35 | 
7 | < 4.12 | 4.17 |  | N=C(N)Nc1ccc(NC(=O)c2cc3ccccc3c(I)c2O)cn1 |  |  | 3.51 | 
8 | < 4.12 | < 3.33 | < 4.02 | N=C(N)Nc1ccc(NC(=O)c2cc3ccccc3c(I)c2O)cc1 |  |  | < 3.35 | 
9 |  |  |  | COc1ccc(O)c(C(=O)Nc2ccc(C(=N)N)cc2)c1 | 5.51 | 5.03 | 4.92 | 5.28
10 |  | < 3.33 |  | NC(N)=Nc1ccc(NC(=O)c2cc(Br)ccc2O)cc1 |  | < 4.02 | < 3.35 | 
11 |  |  |  | N=C(N)c1ccc(NC(=O)c2cc(Br)ccc2O)cc1 |  | 4.68 | 4.54 | 4.82
12 |  |  |  | Cc1ccc(O)c(C(=O)Nc2ccc(C(=N)N)cc2)c1 | 5.59 | 5.16 | 4.85 | 5.03
13 |  |  |  | N=C(N)c1ccc(NC(=O)c2cc([N+](=O)[O-])ccc2O)cc1 | 4.36 | 4.03 | 3.73 | 4.00
14 | < 4.12 | < 3.33 | < 4.02 | CCOc1ccc(C(=O)Nc2ccc(NC(=N)N)cc2)c(O)c1 | 5.00 |  | < 3.35 | 
15 | < 4.12 | < 3.33 | < 4.02 | N=C(N)Nc1ccc(NC(=O)c2cc3ccccc3c(Br)c2O)cc1 |  |  | < 3.35 | 
16 | < 4.12 | < 3.33 | < 3.25 | Cc1cc(I)c(O)c(C(=O)Nc2ccc(NC(=N)N)cc2)c1 | 5.07 |  | < 3.35 | 
17 |  | < 3.33 | < 4.02 | Cc1ccc(C(=O)Nc2ccc(NC(=N)N)cc2)c(O)c1 |  |  | < 3.35 | 
18 |  | < 3.33 |  | N=C(N)Nc1ccc(NC(=O)c2cc([N+](=O)[O-])ccc2O)cc1 | < 4.12 | < 4.02 | 3.50 | 
19 |  | < 3.33 | < 4.02 | COc1ccc(O)c(C(=O)Nc2ccc(NC(=N)N)cc2)c1 | 4.70 |  | < 3.35 | 
20 | < 4.12 | 3.63 |  | N=C(N)Nc1ccc(NC(=O)c2cc3ccccc3c(Br)c2O)cn1 |  |  | 3.48 | 
21 | < 4.12 | < 3.33 |  | Cc1ccc(O)c(C(=O)Nc2ccc(NC(=N)N)cc2)c1 |  | < 4.02 | < 3.35 | 

Row | SMILES | pKi (Plasminogen) | pKi (Coagulation factor X [4]) | pKi [5] | pKi [1] | pKi [2] | pKi (Prothrombin) | pKi (Coagulation factor X [3])
22 | N=C(N)c1ccc(NC(=O)c2ccc(Cl)cc2O)cc1 | 4.57 |  |  | 5.22 | 5.62 | 5.02 | 5.55
23 | N=C(N)c1ccc(NC(=O)c2cccc(-c3ccccc3)c2O)cc1 |  | 3.73 |  | 5.07 | 4.28 | 3.92 | 
24 | Cc1cc(I)c(O)c(C(=O)Nc2ccc(C(=N)N)c(F)c2)c1 |  | 6.28 |  |  | 5.77 |  | 
25 | NC(N)=Nc1ccc(NC(=O)c2cccc(Cl)c2O)cc1 |  | 3.33 | < 4.02 |  |  | < 3.35 | 
26 | N=C(N)c1ccc(NC(=O)c2cccc(Cl)c2O)cc1 |  | 6.00 |  | 6.22 | 5.82 | 6.00 | 
27 | Cc1cccc(C(=O)Nc2ccc(C(=N)N)cc2)c1O | 4.74 | 5.24 |  | 5.77 | 5.41 | 5.10 | 
28 | Cc1cc(Br)c(O)c(C(=O)Nc2ccc(C(=N)N)cc2)c1 |  | 6.36 |  |  | 6.44 | 6.55 | 
29 | [H]/N=C(/N)c1ccc(NC(=O)c2cc(C)cc(I)c2O)cc1Cl |  | 3.94 |  |  | 3.59 | 3.61 | 
30 | Cc1ccc(C(=O)Nc2ccc(C(=N)N)cc2)c(O)c1 | 5.22 | 5.64 |  | 6.00 | 5.44 | 5.00 | 
31 | Cc1cc(I)c(O)c(C(=O)Nc2ccc(C(=N)N)cc2)c1 | 6.54 | 6.34 |  |  | 6.62 | 6.42 | 
32 | Cc1cc(Br)c(O)c(C(=O)Nc2ccc(NC(=N)N)cc2)c1 | 3.69 | 3.82 | 3.59 |  |  | 3.90 | 
33 | N=C(N)c1ccc(NC(=O)c2ccccc2O)cc1 | 4.05 |  | 5.00 | 5.57 |  | 4.66 | 4.92
